Source: ChEMBL document CHEMBL1201862, “PubChem BioAssay data set” (2004)
Active and inactive are the calls of the source.

Legend:
[1] = target: T1, E3 ubiquitin-protein ligase XIAP (Homo sapiens, UniProt P98170); test: Counter Screen using XIAP-Bir3 for Chemical Antagonists of Bir1/2 domains of IAP-family anti-apoptotic proteins. [Related pubchem assays (depositor defined):AID1018, AID1449, AID1514, AID1638, AID1749, AID1750, AID488957, AID488963]
[2] = target: T1, E3 ubiquitin-protein ligase XIAP; test: XIAP antagonists, biochemical, IAP family, fluorescence polarization (AID 1018); format: functional
[3] = target: Intestinal-type alkaline phosphatase (Homo sapiens, UniProt P09923); test: human intestinal alkaline phosphatase activators, dose response, biochemical, luminescence, uHTS hits (AID 463120); format: functional
[4] = HIV-1 Env-mediated cell fusion inhibitors, dose response, CCR5-tropic Env (AID 2279); format: functional
[5] = target: T2, Long-chain-fatty-acid--AMP ligase FadD28 (Mycobacterium tuberculosis, UniProt P9WQ59); test: Fluorescence polarization aasay to screen for inhibitors that compete for the binding of FadD28 to a bisubstrate Measured in Biochemical System Using Plate Reader - 2147-01_Inhibitor_Dose_CherryPick_Activity.; format: functional, Mycobacterium tuberculosis H37Rv
T2 sequence (P9WQ59 whole entry): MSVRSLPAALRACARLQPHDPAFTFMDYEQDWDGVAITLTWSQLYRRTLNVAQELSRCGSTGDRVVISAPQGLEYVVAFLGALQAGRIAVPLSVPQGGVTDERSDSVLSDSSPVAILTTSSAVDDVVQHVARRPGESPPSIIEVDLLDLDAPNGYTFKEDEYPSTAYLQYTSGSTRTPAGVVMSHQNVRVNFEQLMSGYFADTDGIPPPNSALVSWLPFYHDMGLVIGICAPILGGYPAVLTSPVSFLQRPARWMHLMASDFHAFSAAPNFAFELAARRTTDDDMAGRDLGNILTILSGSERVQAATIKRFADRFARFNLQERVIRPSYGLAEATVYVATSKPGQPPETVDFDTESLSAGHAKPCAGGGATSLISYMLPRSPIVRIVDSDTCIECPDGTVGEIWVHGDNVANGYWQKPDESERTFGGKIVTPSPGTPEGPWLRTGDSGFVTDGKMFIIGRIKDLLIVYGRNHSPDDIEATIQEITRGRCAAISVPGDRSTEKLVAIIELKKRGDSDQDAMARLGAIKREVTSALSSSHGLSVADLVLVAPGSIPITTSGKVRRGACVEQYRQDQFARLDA

[6] = target: T3, Voltage-gated N-type calcium channel alpha-1B subunit/Amyloid beta A4 precursor protein-binding family A member 1 (Homo sapiens, UniProt Q00975+Q02410); format: protein assay
T3 sequence (Q00975 whole entry): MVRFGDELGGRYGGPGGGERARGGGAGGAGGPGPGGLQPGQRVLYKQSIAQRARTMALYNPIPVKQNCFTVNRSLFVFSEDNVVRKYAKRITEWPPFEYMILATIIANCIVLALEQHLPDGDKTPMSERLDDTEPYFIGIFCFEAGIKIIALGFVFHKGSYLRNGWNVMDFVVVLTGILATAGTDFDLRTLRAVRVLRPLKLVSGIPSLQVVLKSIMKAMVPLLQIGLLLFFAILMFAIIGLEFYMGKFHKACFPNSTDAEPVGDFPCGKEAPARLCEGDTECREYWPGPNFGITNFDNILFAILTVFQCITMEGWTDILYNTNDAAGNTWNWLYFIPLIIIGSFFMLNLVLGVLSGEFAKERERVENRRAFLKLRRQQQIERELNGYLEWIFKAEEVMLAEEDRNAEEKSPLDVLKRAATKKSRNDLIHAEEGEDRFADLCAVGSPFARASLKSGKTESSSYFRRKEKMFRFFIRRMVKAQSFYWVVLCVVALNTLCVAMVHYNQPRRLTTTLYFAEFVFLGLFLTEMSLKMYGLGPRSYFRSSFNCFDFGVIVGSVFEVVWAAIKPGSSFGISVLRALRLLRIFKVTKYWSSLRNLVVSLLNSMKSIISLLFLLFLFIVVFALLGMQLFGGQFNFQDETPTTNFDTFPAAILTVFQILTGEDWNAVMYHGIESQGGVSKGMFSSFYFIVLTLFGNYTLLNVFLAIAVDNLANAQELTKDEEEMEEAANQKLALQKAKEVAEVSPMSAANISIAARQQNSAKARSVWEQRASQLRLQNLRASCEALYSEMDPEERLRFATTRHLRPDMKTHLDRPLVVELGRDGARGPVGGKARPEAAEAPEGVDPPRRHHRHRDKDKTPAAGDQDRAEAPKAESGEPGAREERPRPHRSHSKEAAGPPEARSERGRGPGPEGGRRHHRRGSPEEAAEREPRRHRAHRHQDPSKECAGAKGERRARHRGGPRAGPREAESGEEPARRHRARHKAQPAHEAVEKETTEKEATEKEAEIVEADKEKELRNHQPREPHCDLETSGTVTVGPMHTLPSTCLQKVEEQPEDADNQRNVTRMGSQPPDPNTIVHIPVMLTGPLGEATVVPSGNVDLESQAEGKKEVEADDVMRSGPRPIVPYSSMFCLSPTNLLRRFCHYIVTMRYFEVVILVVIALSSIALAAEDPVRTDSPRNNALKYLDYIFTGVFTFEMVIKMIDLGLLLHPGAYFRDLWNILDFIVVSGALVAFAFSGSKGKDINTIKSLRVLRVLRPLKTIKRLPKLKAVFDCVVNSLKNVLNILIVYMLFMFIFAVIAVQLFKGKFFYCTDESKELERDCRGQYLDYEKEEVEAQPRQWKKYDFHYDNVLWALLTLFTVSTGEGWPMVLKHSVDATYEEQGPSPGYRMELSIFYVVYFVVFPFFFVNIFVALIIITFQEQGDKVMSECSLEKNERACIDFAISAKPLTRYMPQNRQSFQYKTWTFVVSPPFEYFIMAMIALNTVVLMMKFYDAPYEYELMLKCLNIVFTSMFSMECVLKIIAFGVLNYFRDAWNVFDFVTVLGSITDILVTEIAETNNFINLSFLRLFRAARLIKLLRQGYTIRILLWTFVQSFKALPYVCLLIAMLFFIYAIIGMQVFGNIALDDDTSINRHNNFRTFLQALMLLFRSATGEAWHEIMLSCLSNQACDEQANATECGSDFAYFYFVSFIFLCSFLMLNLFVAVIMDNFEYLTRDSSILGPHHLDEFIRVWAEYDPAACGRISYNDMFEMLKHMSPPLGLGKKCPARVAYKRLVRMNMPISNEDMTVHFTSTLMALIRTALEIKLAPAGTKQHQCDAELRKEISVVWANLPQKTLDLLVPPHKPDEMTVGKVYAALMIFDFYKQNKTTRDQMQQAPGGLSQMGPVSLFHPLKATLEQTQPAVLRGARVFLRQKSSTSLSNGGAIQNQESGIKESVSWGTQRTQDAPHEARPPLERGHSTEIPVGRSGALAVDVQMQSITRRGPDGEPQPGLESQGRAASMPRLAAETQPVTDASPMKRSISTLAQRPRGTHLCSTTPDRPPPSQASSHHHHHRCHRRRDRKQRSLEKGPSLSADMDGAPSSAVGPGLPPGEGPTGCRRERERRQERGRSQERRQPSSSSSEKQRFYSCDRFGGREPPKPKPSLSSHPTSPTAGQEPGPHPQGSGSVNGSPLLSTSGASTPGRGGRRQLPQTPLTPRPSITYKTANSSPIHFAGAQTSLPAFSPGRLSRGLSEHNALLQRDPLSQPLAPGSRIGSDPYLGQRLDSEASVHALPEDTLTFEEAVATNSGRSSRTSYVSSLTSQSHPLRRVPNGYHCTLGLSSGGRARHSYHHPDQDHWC
T3 sequence (Q02410 whole entry): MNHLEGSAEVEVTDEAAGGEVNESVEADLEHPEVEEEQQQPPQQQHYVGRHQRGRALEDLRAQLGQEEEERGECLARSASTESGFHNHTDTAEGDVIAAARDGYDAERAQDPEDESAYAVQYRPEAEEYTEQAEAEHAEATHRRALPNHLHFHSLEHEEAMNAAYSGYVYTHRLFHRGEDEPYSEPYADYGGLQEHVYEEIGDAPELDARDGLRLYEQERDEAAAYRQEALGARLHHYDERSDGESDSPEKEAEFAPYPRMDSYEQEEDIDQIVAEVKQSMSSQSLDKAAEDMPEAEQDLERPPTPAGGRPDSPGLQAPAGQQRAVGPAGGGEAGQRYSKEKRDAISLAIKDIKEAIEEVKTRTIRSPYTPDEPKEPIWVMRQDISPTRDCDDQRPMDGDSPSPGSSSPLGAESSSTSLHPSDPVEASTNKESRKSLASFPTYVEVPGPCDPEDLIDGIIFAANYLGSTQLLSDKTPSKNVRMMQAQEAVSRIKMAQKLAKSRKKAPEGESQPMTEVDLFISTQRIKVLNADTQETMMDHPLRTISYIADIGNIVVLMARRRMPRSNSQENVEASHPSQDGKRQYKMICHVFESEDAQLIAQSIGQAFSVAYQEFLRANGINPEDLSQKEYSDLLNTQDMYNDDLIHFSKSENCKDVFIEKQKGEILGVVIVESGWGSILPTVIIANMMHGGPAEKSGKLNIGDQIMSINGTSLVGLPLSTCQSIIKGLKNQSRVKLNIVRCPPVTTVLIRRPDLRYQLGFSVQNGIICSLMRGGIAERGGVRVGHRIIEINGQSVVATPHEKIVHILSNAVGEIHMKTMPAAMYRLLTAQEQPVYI

[7] = target: T3, Voltage-gated N-type calcium channel alpha-1B subunit/Amyloid beta A4 precursor protein-binding family A member 1; format: protein assay; remark: listed apart in the source
[8] = target: Induced myeloid leukemia cell differentiation protein Mcl-1 (Homo sapiens, UniProt Q07820); format: functional
Chain of Induced myeloid leukemia cell differentiation protein Mcl-1 (Q07820 whole entry): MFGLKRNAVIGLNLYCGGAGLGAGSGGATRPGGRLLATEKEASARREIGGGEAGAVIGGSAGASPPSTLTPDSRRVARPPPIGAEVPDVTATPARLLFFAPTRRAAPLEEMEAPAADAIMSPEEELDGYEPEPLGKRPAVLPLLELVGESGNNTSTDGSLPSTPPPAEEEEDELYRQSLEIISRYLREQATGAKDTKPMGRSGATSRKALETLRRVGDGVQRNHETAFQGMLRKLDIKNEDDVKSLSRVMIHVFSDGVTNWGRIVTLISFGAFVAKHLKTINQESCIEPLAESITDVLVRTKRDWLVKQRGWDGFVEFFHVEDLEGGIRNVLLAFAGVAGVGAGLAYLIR

[9] = test system: Streptococcus; test: Group A Streptococcus viability loss, dose response, counter-screen for streptokinase expression inhibitor project, luminescence, BacTiterGlo (AID 1915); format: functional, organism-based;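 further: potency for reduction of bacterial viability or growth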
[10] = target: T4, Streptokinase A (Streptococcus pyogenes serotype M1, UniProt P10520); test: S. pyogenes streptokinase expression inhibitors, potency, dose response, plasminogen activation absorbance, OD405 (AID 1914); format: functional, Streptococcus pyogenes M1 GAS;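 further: secreted streptokinase activity via plasminogen activation per viability signal from cell pellet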
T4 sequence (P10520 whole entry): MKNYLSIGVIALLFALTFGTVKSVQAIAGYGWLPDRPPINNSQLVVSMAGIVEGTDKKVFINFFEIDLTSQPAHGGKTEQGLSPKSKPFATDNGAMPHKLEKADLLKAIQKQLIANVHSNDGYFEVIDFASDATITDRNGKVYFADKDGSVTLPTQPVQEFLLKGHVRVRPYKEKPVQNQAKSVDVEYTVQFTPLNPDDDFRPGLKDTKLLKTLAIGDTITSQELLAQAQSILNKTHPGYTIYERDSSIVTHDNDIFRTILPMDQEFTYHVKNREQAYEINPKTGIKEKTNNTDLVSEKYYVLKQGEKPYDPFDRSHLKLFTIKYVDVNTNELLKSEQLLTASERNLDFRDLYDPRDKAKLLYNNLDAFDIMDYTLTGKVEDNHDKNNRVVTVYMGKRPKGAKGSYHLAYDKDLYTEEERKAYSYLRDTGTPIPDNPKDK

[11] = test system: Streptococcus sp. 'group A'; test: growth inhibition of control SK(-) GAS strain, dose response, counter-screen for streptokinase expression inhibitor project, luminescence, kanamycin, BacTiterGlo, confirmation (AID 1900); format: functional, organism-based
[12] = target: T5, Serine/threonine-protein phosphatase (Candida dubliniensis (strain CD36 / CBS 7987 / NCPF 3949 / NRRLY-17841) (Yeast), UniProt B9W6M3); test: calcineurin pathway inhibitors in yeast reporter, dose response, S. cerevisiae, CDRE-lacZ, luminescence, secondary (AID 2388); format: functional, cell-based;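 further: yeast reporter cells carrying a calcineurin-responsive lacZ construct stimulated with calcium chloride; luminescent beta-galactosidase reporter signal in whole cells rather than isolated phosphatase activity; potency for inhibition where a drop in reporter signal means calcineurin blockade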
T5 sequence (B9W6M3 whole entry): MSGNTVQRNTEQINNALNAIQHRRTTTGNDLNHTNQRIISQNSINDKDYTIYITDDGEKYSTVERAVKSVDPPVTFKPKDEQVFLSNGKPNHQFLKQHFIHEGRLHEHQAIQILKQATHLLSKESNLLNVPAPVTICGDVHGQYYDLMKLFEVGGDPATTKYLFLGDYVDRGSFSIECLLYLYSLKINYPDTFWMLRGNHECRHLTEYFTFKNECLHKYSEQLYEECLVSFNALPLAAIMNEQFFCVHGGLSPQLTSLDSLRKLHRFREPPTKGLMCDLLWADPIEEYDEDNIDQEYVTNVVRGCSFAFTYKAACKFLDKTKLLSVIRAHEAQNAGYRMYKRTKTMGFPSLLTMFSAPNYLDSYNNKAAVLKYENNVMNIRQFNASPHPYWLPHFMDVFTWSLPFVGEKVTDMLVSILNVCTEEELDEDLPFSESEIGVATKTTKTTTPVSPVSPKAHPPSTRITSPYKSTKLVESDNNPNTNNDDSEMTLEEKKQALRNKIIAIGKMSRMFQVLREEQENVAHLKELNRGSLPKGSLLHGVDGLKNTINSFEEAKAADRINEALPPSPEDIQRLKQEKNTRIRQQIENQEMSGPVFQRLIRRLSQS

[13] = target: Genome polyprotein (dengue virus type 2, UniProt P29990); test: Dengue-2 NS5 methyltransferase inhibitors, primary screen, biochemical, confirmation dose response (AID 588689); format: functional
[14] = target: Peroxisome proliferator-activated receptor gamma/Nuclear receptor coactivator 2 (Homo sapiens, UniProt P37231); test: (§1) TR-FRET dose response biochemical High Throughput Screening assay for agonists of the steroid receptor coactivator 2 (SRC-2) recruitment by the peroxisome proliferator-activated receptor gamma (PPAR gamma): non-selective agonists. [Related pubchem assays: 1297, 1032 ]; format: functional
[15] = target: ATP-dependent molecular chaperone HSP82 (Candida albicans (strain WO-1) (Yeast), UniProt C4YTQ8); test: loss of DOC-induced GRE-beta-galactosidase reporter signal, dose response, Hsp90 inhibitor project, S. cerevisiae, luminescence (AID 2400); format: functional, cell-based;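 further: beta-galactosidase luminescence from glucocorticoid response element reporter as proxy for Hsp90 function; inhibitor potency where signal loss means Hsp90 inhibition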
Chain of ATP-dependent molecular chaperone HSP82 (C4YTQ8 whole entry): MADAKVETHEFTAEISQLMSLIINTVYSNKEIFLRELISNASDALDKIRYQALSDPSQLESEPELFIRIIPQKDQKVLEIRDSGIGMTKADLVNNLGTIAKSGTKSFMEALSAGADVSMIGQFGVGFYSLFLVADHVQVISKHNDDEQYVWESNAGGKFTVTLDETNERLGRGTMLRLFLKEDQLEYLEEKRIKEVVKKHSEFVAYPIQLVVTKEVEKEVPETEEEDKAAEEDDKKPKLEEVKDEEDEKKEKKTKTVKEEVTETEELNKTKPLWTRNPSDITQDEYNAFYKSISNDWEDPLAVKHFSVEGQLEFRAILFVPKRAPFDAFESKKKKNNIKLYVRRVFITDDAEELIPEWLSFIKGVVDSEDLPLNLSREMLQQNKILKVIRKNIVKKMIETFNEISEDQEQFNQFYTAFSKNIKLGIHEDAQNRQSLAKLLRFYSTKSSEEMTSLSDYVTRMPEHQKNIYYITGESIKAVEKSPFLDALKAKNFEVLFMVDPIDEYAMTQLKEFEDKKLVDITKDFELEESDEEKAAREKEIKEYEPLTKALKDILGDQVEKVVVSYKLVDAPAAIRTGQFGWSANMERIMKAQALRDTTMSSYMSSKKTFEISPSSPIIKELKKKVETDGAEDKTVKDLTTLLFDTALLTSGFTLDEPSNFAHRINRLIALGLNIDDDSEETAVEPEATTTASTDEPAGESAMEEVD

[16] = target: T6, Probable nicotinate-nucleotide adenylyltransferase (Staphylococcus aureus (strain N315), UniProt P65502); format: functional, Staphylococcus aureus subsp. aureus N315; conditions: read-out: IC50_Mean;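 on IC50 Mean: confirmatory dose-response retesting of NadD inhibitor hits first found in an ultra-high-throughput screen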
T6 sequence (P65502 whole entry): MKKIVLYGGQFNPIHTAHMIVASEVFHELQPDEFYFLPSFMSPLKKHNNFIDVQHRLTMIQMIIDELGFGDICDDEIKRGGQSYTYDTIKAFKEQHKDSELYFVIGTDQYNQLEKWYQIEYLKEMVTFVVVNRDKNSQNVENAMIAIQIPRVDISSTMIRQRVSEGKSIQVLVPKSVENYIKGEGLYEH

[17] = NIH-3T3 fibroblast cytotoxicity, dose response, cytotoxicity control, cell-based, fluorescence, Alamar Blue, secondary assay (AID 2327); format: functional;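 further: NIH-3T3 mouse fibroblasts cultured with fluconazole at 8 µg/mL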
[18] = target: T6, Probable nicotinate-nucleotide adenylyltransferase; format: functional, Staphylococcus aureus subsp. aureus N315
[19] = test system: Escherichia coli; test: microbe, parasite or virus in culture
[20] = C. albicans growth with fluconazole, confirmation, fluorescence, retest (AID 2467); format: functional, cell-based
[21] = target: T7, Aminopeptidase N (Plasmodium falciparum FcB1/Columbia, UniProt O96935); test: P. falciparum M1AAP inhibitors, biochemical, fluorogenic H-Leu-NHMec substrate, 1536-well (AID 1445); design: species or system Plasmodium falciparum 3D7, 3D7
T7 sequence (O96935 whole entry): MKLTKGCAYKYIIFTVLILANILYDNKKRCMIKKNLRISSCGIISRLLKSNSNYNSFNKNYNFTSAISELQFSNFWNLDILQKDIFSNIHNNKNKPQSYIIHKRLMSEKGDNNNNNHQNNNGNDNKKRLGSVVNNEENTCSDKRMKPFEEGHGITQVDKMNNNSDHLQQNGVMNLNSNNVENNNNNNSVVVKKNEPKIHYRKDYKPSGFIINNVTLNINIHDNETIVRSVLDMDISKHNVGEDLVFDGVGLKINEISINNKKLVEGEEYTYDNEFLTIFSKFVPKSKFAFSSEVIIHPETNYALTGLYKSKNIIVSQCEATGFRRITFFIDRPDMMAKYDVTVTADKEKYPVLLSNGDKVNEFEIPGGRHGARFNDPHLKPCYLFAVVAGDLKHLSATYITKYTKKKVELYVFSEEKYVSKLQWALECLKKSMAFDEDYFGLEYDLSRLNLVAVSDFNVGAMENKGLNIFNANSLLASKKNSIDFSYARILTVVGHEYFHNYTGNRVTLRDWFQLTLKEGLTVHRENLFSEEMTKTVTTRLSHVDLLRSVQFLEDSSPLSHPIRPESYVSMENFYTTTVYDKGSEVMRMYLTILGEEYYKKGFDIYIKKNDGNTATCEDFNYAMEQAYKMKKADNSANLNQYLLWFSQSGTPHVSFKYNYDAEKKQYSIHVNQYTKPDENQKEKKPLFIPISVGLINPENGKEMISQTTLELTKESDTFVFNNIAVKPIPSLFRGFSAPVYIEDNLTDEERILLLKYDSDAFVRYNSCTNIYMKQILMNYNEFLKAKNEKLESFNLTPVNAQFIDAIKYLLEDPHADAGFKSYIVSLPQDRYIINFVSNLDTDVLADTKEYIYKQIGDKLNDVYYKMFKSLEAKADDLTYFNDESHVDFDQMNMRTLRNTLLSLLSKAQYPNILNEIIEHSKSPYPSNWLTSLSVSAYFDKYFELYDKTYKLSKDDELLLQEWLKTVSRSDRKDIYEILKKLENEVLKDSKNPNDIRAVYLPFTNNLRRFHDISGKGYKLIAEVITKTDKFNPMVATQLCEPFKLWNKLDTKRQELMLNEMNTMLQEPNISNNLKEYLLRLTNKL

[22] = test system: Vero; test: Vero cell cytotoxicity, cytotoxicity control for flavivirus capping enzyme inhibitors (AID 588742); format: functional; conditions: Chlorocebus sabaeus
[23] = target: Peroxisome proliferator-activated receptor gamma/Nuclear receptor coactivator 1 (Homo sapiens, UniProt P37231); test: as §1, with “1 (SRC-1)” for “2 (SRC-2)”, “assays (depositor defined):AID1300, AID1808, AID504735, AID631]” for “assays: 1297, 1032 ]”; format: protein assay
[24] = target: Peroxisome proliferator-activated receptor gamma/Nuclear receptor coactivator 3 (Homo sapiens, UniProt P37231); test: as §1, with “3 (SRC-3)” for “2 (SRC-2)”, “1301 (Confirmation screen.), 1048 (Primary screen.)]” for “1297, 1032 ]”; format: functional
[25] = target: T3, Voltage-gated N-type calcium channel alpha-1B subunit/Amyloid beta A4 precursor protein-binding family A member 1; test: disruptors of Mint-PDZ/N-type channel peptide interaction – biochemical, HTRF, SAR follow-up (AID 2489); format: functional

T1 sequence (P98170 whole entry): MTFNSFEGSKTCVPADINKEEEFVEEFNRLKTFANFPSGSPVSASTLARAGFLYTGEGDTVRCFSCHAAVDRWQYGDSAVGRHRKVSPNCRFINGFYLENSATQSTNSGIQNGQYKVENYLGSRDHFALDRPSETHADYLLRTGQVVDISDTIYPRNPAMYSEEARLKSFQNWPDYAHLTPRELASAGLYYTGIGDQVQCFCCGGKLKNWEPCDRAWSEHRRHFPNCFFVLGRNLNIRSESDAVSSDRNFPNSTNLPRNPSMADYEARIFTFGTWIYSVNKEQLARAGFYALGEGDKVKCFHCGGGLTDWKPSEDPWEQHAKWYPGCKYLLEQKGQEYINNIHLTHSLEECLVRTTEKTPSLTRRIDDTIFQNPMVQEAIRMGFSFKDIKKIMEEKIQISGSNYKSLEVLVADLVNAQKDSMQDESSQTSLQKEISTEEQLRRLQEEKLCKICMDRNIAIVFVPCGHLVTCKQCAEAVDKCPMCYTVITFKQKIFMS

With `COc1cc2cnc(Cl)nc2cc1OC` the IC50 [1] was > 100 µM (inactive) and the IC50 [2] was > 100 µM (not active).

In the case of `O=C(CSc1nc[nH]n1)NCCc1ccccc1`, the EC50 [3] is reported as > 100 µM (inactive).

For `Nc1ncnc(Sc2ccc(Cl)cc2)c1[N+](=O)[O-]`, the IC50 [1] was > 100 µM (inactive) and the IC50 [2] was > 100 µM (not active).

In the case of `Cc1c2c(=O)n(-c3nc4ccccc4s3)nc-2cc(O)n1Cc1ccccc1`, the IC50 [4] is reported as 17.4 µM (active), the AC50 [5] is reported as 20.5 µM (active) and the IC50 [6] is reported as 3.01 µM (active). The IC50 [7] was > 50 µM (inactive) and the IC50 [8] was 4.32 µM (active).

For `Cc1ccc(N2C(=O)/C(=C\Nc3ccccc3-c3nnc(S)nc3O)c3ccccc3C2=O)cc1C`, the EC50 [9] was 13.8 µM (active), the EC50 [10] was > 150 µM (not active) and the EC50 [11] was 0.798 µM (active). For the same compound, the EC50 [12] was > 180 µM (inactive), the IC50 [13] was 31.5 µM (active) and the EC50 [14] was 13.2 µM (not active). The EC50 [15] was 23 µM (active), the IC50 [16] was 11.2 µM (active) and the EC50 [17] was 16 µM (inconclusive). For the same compound, the IC50 [8] was 3.26 µM (active), the IC50 [18] was 3.94 µM (active) and the AC50 [19] was 33.6 µM (active). The EC50 [20] was 0.262 µM (active), the IC50 [21] was 39.2 µM (active) and the CC50 [22] was > 40 µM (active). For the same compound, the EC50 [23] was 26.6 µM (inactive) and the EC50 [24] was > 79.4 µM (not active).

In the case of `Cc1ccc(/C=C/C(=O)N2CCN(c3ncccn3)CC2)o1`, the IC50 [6] is reported as 4.71 µM (active), the IC50 [25] is reported as > 56.8 µM (inactive) and the IC50 [7] is reported as 4.77 µM (active).

In the case of `O=C(CSc1ncnc2c1oc1ccccc12)NCc1ccc(F)cc1`, the EC50 [14] is reported as 20.5 µM (not active), the EC50 [23] is reported as 21.9 µM (inactive) and the EC50 [24] is reported as 83.1 µM (not active).
